Our source for the IC50 values is US10858364B2, “Imidazopyrazine inhibitors of Bruton's tyrosine kinase” (Acerta Pharma B.V., priority 2016, dated 2020).

Structures are written as SMILES.

The target of this experiment is JAK3 (Homo sapiens (Human), UniProt P52333). The experiment can be described thus: JAK3 Z'-LYTE kinase assay. It counts as biochemical. The following applies: 1 h pre-incubation, Km ATP. The procedure:
BMX, TXK, EGFR, ERBB2, ERBB4, JAK3, BLK kinase activity was measured using the Z′-LYTE assay at Thermo Fisher. A 10-point dose response (final concentration in assay ranged from 10 μM to 0.5 nM in 3-fold dilution per dilution step) was generated with 1 h incubation of the test compound with the kinase prior to initiation of the kinase reaction by the addition of ATP. ATP concentration in the assay was Km ATP for the different kinases. IC50 values are determined by curve fitting of the experimental results at Thermo Fisher.

JAK3, sequence (P52333 whole entry): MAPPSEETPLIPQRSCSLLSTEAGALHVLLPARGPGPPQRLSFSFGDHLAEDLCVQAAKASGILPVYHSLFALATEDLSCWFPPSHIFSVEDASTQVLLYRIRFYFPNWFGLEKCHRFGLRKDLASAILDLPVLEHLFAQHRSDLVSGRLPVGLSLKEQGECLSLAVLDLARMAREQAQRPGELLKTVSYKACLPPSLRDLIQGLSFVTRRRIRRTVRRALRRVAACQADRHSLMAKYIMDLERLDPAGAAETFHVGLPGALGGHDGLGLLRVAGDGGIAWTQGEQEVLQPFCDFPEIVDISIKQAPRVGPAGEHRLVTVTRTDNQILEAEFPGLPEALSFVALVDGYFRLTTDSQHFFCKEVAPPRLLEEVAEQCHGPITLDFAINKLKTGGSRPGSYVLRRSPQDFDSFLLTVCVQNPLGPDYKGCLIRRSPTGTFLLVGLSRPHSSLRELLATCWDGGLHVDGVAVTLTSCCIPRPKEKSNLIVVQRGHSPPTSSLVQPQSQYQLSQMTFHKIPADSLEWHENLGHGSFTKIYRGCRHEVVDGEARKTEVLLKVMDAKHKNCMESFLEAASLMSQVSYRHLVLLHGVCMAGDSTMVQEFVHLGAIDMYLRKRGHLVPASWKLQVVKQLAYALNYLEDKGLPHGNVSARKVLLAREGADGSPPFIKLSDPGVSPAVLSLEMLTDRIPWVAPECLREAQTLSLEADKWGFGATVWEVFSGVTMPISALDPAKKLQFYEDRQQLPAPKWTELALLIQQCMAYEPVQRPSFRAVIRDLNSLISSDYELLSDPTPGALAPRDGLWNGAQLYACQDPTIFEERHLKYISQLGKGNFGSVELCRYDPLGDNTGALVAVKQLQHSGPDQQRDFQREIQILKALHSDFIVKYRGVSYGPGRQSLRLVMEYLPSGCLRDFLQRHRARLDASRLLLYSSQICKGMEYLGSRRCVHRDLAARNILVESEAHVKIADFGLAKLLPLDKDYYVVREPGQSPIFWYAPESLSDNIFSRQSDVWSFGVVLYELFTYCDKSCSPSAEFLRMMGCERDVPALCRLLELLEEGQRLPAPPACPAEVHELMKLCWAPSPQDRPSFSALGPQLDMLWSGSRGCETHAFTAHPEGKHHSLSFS

`CC#CC(=O)NCCCC(=O)c1nc(-c2ccc(C(=O)Nc3ccccn3)cc2)c2c(N)nccn12` [Formula (I), 4-(8-amino-3-(4-(but-2-ynamido)butanoyl)imidazo[1,5-a]pyrazin-1-yl)-N-(pyridin-2-yl)benzamide]: the IC50 – broadly, the concentration needed to halve the response being measured – was more than 10 µM.
